The results in this text go back to patent US11802108B2, “Compounds for the modulation of cyclophilins function” (The University Court of The University of Edinburgh, priority 2018, dated 2023).

Structures can show the parent of a compound that is named as a salt.

The target of assay [1] is T1, CypA (Homo sapiens (Human), UniProt P62937). Nature of the assay: X-ray co-crystal structure with CypA. As to CypA X-ray co-crystal: key: Y: observed in cocrystal; N: not observed in cocrystal. Format: binding. The conditions noted are these: for CypA X-ray co-crystal: apo CypA crystals soaked with 5 mM ligand; for binding mode in co-crystal structure of CypA: FIG. 1. The protocol:
Purified and his-tag-cleaved CypA was buffer-exchanged into PBS and concentrated to ˜29 mg ml^−1. For crystallisation 1 μL of protein was mixed with an equal volume of the well solution, consisting of 100 mM Tris-HCl pH8.0 and 20-22% v/v PEG 8000, and crystal formation came about after equilibration overnight in 6° C. by vapour diffusion using the hanging drop method over 1 mL of the same well solution. Apo CypA crystals were soaked overnight into different ligand solution consisting of 100 mM Tris-HCl pH 8.0, 35% w/v PEG 8000, 5% v/v Glycerol, 5% v/v DMSO and 5 mM ligand, before flash frozen into liquid nitrogen. X-ray data were collected at the Diamond synchrotron-radiation facility in Oxford-shire, England at 100K. Structures were solved by molecular replacement using DIMPLE from the CCP4i suite. Modelled structures were visualised and manually adjusted as needed using Coot10 and further refined using REFMAC5 from CCP4i.
FIG. 1A summarises the mode of binding of certain prior-art urea small molecule Cyp inhibitors.

For assay [2], the target named is T1, CypA. Nature of the assay: Isothermal titration calorimetry (ITC) binding to CypA. The following applies: 25° C. How it is done:
All ITC experiments for the ester series compounds were carried out at 25° C. on a MicroCal Auto iTC200 (GE Healthcare) instrument. The buffer used in the titrations of the compounds belonging to the ester series was 50 mM phosphate buffer, pH 6.5 and the concentration of DMSO was 2% v/v for all the compounds, unless otherwise stated in Table 51. Final compound solutions were heated to 65° C. and/or sonicated prior to the experiment. Each experiment consisted of an initial injection of 0.4 μL followed by nineteen 2 μL injections and in most of cases for these compounds, the “continue injections” protocol was used leaving the cell intact and performing a second series of titrations using the above protocol to achieve saturation. Control experiments were performed, where each compound was titrated into buffer and when small amount of heat was detected due to heat of dilution, it was subtracted when processing the data using a linear fit method. In all cases the first injection was omitted from the data processing. All data were analysed using the MicroCal PEAQ-ITC Analysis software.
The buffer used for these titrations was: PBS, 0.05% v/v P20 surfactant, 50 μM EDTA in presence of 2% v/v EtOH and the pH was set to 7.4.
(In general: ITC needs no label: the signal is the heat of the interaction.)

The target of assay [3] is CypB (Homo sapiens (Human), UniProt P23284). Nature of the assay: Surface plasmon resonance (SPR) binding to His-CypB. The conditions noted are these: 25° C., triplicate. The protocol:
(§1) Single cycle kinetic titration binding experiments were performed using SPR in triplicate at 25° C. […] The sensor surface was regenerated between experiments by dissociating any formed complex in running buffer for at least 1,200 seconds.
(§2) Kinetic titration binding experiments were performed in triplicate at 25° C. […] The sensor surface was regenerated between experiments by dissociating any formed complex in running buffer for at least a further 600 seconds.
Background: In SPR one partner is held on a chip, and binding of the other changes the refractive index at the surface.

The target of assay [4] is T1, CypA. Nature of the assay: Surface plasmon resonance (SPR) binding to His-CypA. The conditions noted are these: 25° C., triplicate. The protocol:
(§3) SPR measurements were performed on a BIAcore T200 instrument (GE Healthcare). Ni^2+-nitrilotriacetic acid (NTA) sensor chips, 1-ethyl-3-(3-[…]) carbodiimide hydrochloride (EDC) and Nhydroxysuccinimide (NHS) were purchased from GE Healthcare.
(§4) Pure His-cyclophilins were immobilized and covalently stabilized on the NTA sensor chip according to the protocol described in Thermo-kinetic analysis space expansion for cyclophilin-ligand interactions—identification of a new nonpeptide inhibitor using Biacore T200.
as §1, §2

Assay [5] concerns the target CypD (Homo sapiens (Human), UniProt P30405). Nature of the assay: Surface plasmon resonance (SPR) binding to His-CypD. The following applies: 25° C., triplicate. The protocol: as §3, §4, §1, §2
Assay [6] concerns MDA-MB-231 cells. Nature of the assay: Growth inhibition (GI50) of MDA-MB-231 cells, IncuCyte imaging. The conditions noted are these: MDA-MB-231, 120 hours imaging. Format: cell-based. The protocol:
(§5) The latter medium with 2000 U/mL IL-2 was used for NK92 cell killing assays.
To determine the direct effect of the compounds on cell proliferation, cells were seeded at a density of 500 cells per well in cell culture medium in 384-well cell culture plates and allowed to adhere overnight (about 16 hours), incubated in a humidified atmosphere with 5% CO2. Subsequently, cell culture medium was refreshed, supplemented with Draq 7 (3 μM final concentration) and test compound at the indicated concentrations with three wells being treated for each condition tested. Cells were then returned to the cell culture incubator and imaged with a 10× objective every 3 hours for 120 hours using an IncuCyte ZOOM microscope from Essen Bioscience.
Using the IncuCyte ZOOM software, custom image analysis procedures were developed and applied for each cell line to determine cell confluency, cell number and number of dead cells over the time course of the experiment.
Statistical analyses in cell viability assays to compare the effect of compound treatment to treatment with vehicle were performed using GraphPad Prism 6 (2-way ANOVA with Bonferroni correction post hoc).

Assay [7] has as its system MDA-MB-231 cells in presence of NK92 cells. Nature of the assay: NK92 immune cell killing of MDA-MB-231 cancer cells. It counts as cell-based. The conditions noted are these: with NK92 cells. The protocol: as §5
NK92 cells were then added at a density of 1000 cells per well and 10 μM test compound was added. Cells were imaged with a 10× objective every 3 hours for 120 hours using an IncuCyte ZOOM microscope from Essen Bioscience.
Apoptotic fraction of the population (number of nuclei with co-localized red and green fluorescence divided by total number of red nuclei in the population) and fold increase in number of red nuclei were determined at various time points.

T1 sequence (P62937 whole entry, the tested form may be a part): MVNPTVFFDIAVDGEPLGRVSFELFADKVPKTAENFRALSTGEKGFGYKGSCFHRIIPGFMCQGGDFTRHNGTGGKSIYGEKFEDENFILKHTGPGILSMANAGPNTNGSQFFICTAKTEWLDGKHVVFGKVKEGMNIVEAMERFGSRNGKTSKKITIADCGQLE
CypB, sequence (P23284 34-216): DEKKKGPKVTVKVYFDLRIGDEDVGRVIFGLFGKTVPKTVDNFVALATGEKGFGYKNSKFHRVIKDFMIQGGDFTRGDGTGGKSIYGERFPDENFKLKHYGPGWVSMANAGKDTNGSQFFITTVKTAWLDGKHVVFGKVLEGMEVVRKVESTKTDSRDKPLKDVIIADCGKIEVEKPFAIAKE
CypD, sequence (P30405 30-207): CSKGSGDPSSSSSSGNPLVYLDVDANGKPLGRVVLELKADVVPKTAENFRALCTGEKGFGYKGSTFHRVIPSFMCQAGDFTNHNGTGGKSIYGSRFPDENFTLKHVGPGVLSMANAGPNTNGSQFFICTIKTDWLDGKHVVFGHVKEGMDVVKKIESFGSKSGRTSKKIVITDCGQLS

As usually defined, the Kd is the constant that tells how readily two partners part at equilibrium. A lower Kd goes with higher affinity. On to `CCOC(=O)CNC(=O)N(CC)Cc1ccc2c(c1)[C@H]1CC(N2)[C@H](O)CO1` (stereo in doubt) [Compound 23, Ethyl 2-{[ethyl({[(1R,9S,10S)-10-hydroxy-12-oxa-8-azatricyclo[7.3.1.0^2,7]trideca-2,4,6-trien-4-yl]methyl})carbamoyl]amino}acetate hydrochloride], for which the “CypA X-ray co-crystal” value in assay [1] is given as “N”. In addition, in assay [2], the dissociation constant Kd is 700 ± 235 µM.

`CCOC(=O)Cn1cc(CN(Cc2ccc(N)cc2)C(=O)NCC(=O)N2CCCC2c2ccccc2Br)nn1.Cl` (centres unmarked) [Compound 5, Ethyl 2-[4-({[(4-aminophenyl)methyl]({2-[2-(2-bromophenyl)pyrrolidin-1-yl]-2-oxoethyl}carbamoyl)amino}methyl)-1H-1,2,3-triazol-1-yl]acetate hydrochloride]: the equilibrium dissociation constant (Kd) was 1.9 ± 0.9 µM in assay [3], 4.3 ± 1 µM in assay [4], about 3 µM in assay [2] and 1 ± 0.4 µM in assay [5]. The “CypA X-ray co-crystal” value in assay [1] was “N”.

As to `CCOC(=O)CCn1cc(CN(Cc2ccc(N)cc2)C(=O)NCC(=O)N2CCCC2c2ccccc2Br)nn1.Cl` (centres unmarked) [Compound 6, Ethyl 3-[4-({[(4-aminophenyl)methyl]({2-[2-(2-bromophenyl)pyrrolidin-1-yl]-2-oxoethyl}carbamoyl)amino}methyl)-1H-1,2,3-triazol-1-yl]propanoatehydrochloride], the “CypA X-ray co-crystal” value in assay [1] is reported as “N”. In assay [2], this compound yielded a Kd of 0.3 ± 0.08 µM.

As for `Cl.Cn1cc(CN(Cc2ccc(N)cc2)C(=O)NCC(=O)N2CCCC2c2ccccc2Cl)nn1` (centres unmarked) [Compound 8, 1-[(4-aminophenyl)methyl]-3-{2-[2-(2-chlorophenyl)pyrrolidin-1-yl]-2-oxoethyl}-1-[(1-methyl-1H-1,2,3-triazol-4-yl)methyl]urea hydrochloride], in assay [1], the “CypA X-ray co-crystal” value is “N”. Besides, in assay [2], the Kd turned out to be 1.1 ± 0.4 µM.

Regarding `CCN(Cc1ccc(N)cc1)C(=O)NCC(=O)N1CCCC1c1ccccc1` (centres unmarked) [Compound 9, 1-[(4-aminophenyl)methyl]-3-{2-[2-(phenyl)pyrrolidin-1-yl]-2-oxoethyl}-1-ethylurea], in assay [1], the “CypA X-ray co-crystal” value is recorded as “Y”. Besides, the Kd in assay [2] is 35 ± 5 µM.

As to `CCN(Cc1ccc(N)cc1)C(=O)NCC(=O)N1CCCC1c1ccccc1Br.Cl` (centres unmarked) [Compound 10, 1-[(4-aminophenyl)methyl]-3-{2-[2-(2-bromophenyl)pyrrolidin-1-yl]-2-oxoethyl}-1-ethylurea hydrochloride], in assay [1], the “CypA X-ray co-crystal” value is recorded as “N”. The compound further came in with a Kd in assay [2] of about 25 µM.

As to `Cl.Nc1ccc(CN(CC2CC2)C(=O)NCC(=O)N2CCCC2c2ccccc2Br)cc1` (centres unmarked) [Compound 11, 1-[(4-aminophenyl)methyl]-3-{2-[2-(2-bromophenyl)pyrrolidin-1-yl]-2-oxoethyl}-1-(cyclopropylmethyl)urea], the “CypA X-ray co-crystal” value in assay [1] is “Y”. Also, the Kd in assay [2] is about 10 µM.

As to `CCOC(=O)CNC(=O)N(CC)Cc1ccc(N)cc1.Cl` [Compound 12, Ethyl 2-({[(4-aminophenyl)methyl](ethyl)carbamoyl}amino)acetate hydrochloride], in assay [1], the “binding mode in co-crystal structure of CypA” value is on record as “type-I binding mode” and the “CypA X-ray co-crystal” value is reported as “Y”. This compound returned a Kd in assay [2] of 200 ± 5 µM.

In the case of `CCOC(=O)CNC(=O)N(CC#N)Cc1ccc(N)cc1.Cl` [Compound 13, Ethyl 2-({[(4-aminophenyl)methyl](cyanomethyl)carbamoyl}amino)acetate hydrochloride], the “CypA X-ray co-crystal” value in assay [1] is reported as “Y”. In assay [2], this compound registered a Kd of 990 ± 20 µM.

Take `CCOC(=O)CNC(=O)N(Cc1ccc(N)cc1)Cc1nnn[nH]1.Cl` [Compound 14, Ethyl 2-({[(4-aminophenyl)methyl][(1H-1,2,3,4-tetrazol-5-yl)methyl]carbamoyl}amino)acetate hydrochloride]: the “CypA X-ray co-crystal” value in assay [1] is “N”. In assay [2], this compound showed a Kd of 139 ± 4 µM.

As for `CCOC(=O)[C@H](CCSC)NC(=O)N(CC)Cc1ccc(N)cc1` [Compound 15, Ethyl (2S)-2-({[(4-aminophenyl)methyl](ethyl)carbamoyl}amino)-4-(methylsulfanyl)butanoate hydrochloride], the “CypA X-ray co-crystal” value in assay [1] was “Y”. In addition, the Kd in assay [2] came to 35 ± 5 µM.

As to `CCCN(Cc1ccc(N)cc1)C(=O)NCC(=O)OCC` [Compound 16, Ethyl 2-({[(4-aminophenyl)methyl](propyl)carbamoyl}amino)acetate], the “CypA X-ray co-crystal” value in assay [1] is given as “Y”. The same compound came in with a Kd in assay [2] of 266 ± 3 µM.

Regarding `CCOC(=O)CNC(=O)N(Cc1ccc(N)cc1)CC1CC1.Cl` [Compound 17, Ethyl 2-({[(4-aminophenyl)methyl](cyclopropylmethyl)carbamoyl}amino)acetate hydrochloride], the “CypA X-ray co-crystal” value in assay [1] is “Y”.

With `CCOC(=O)CNC(=O)N(Cc1ccc(N)cc1)Cc1cn(C)nn1.Cl` [Compound 18, Ethyl 2-({[(4-aminophenyl)methyl][(1-methyl-1H-1,2,3-triazol-4-yl)methyl]carbamoyl}amino)acetate hydrochloride], in assay [1], the “CypA X-ray co-crystal” value is on record as “Y”. The same compound had an equilibrium dissociation constant (Kd) in assay [2] of 135 ± 6 µM.

On to `CCOC(=O)CNC(=O)N(Cc1ccc(N)cc1)Cc1nnn(C)n1.Cl` [Compound 19, Ethyl 2-({[(4-aminophenyl)methyl][(2-methyl-2H-1,2,3,4-tetrazol-5-yl)methyl]carbamoyl}amino)acetate hydrochloride], for which, in assay [1], the “binding mode in co-crystal structure of CypA” value is on record as “type-II binding mode” and the “CypA X-ray co-crystal” value is reported as “Y”. The compound further returned a Kd in assay [2] of 184 ± 13 µM.

In the case of `C#CCN(Cc1ccc(N)cc1)C(=O)NCC(=O)OCC` [Compound 22, Ethyl 2-({[(4-aminophenyl)methyl](prop-2-yn-1-yl)carbamoyl}amino)acetate], the “CypA X-ray co-crystal” value in assay [1] is listed as “Y”. Besides, the Kd in assay [2] was over 1000 µM.

Broadly, the GI50 is the concentration giving 50% growth inhibition. A higher GI50 goes with less potent growth inhibition. Take `C/C=C/CC(C)C(O)C1C(=O)NC(CC)C(=O)N(C)CC(=O)N(C)C(CC(C)C)C(=O)NC(C(C)C)C(=O)N(C)C(CC(C)C)C(=O)NC(C)C(=O)NC(C)C(=O)N(C)C(CC(C)C)C(=O)N(C)C(CC(C)C)C(=O)N(C)C(C(C)C)C(=O)N1C` (centres unmarked) [CsA, Cyclosporin A, reference compound]: the GI50 in assay [6] came out at 6.2 ± 0.8 µM. Further, in assay [7], the “Apoptotic fraction of the MDA-MB-231 population in the presence of NK92 cells after 72 h @ 10 μM” value was 0.38 ± 0.01.
